Assay results as given in PMC3192407, “Both Basic and Acidic Amino Acid Residues of IpTxa Are Involved in Triggering Substate of RyR1” (Journal of Biomedicine and Biotechnology, 2011).
Bridge positions count the residues as written; N and C are the ends. Peptide text beside a SMILES is read from it.

Molecular target: T1, rabbit skeletal RyR1 (native RyR1 in HSR) (Oryctolagus cuniculus, UniProt P11716)
T1 construct: tested using native RyR1 in rabbit skeletal HSR; from tissue; host or cells: rabbit fast-twitch back and leg muscles (heavy SR vesicles)
Assay: Planar lipid bilayer single-channel recording, native RyR1 in HSR
Format: biochemical
Details: native RyR1 (Figure 2(b)); Figure 5(b), purified RyR1, also cited in sentence
Protocol: A heavy fraction of fragmented SR vesicles (HSR) containing junctional SR was prepared from rabbit fast-twitch back and leg muscles as described previously.
Single-channel recordings of rabbit skeletal RyR1 incorporated into planar lipid bilayers were carried out as described previously. Lipid bilayers, consisting of brain tissue phosphatidylethanolamine and phosphatidylserine (1 : 1) in decane (20 mg/mL) were formed across a hole of approximately 200 μm diameter. Thinning of the bilayer was monitored by bilayer capacitance. The basic composition of the cis/trans solution consisted of 300 mM cesium methanesulfonate, 10 mM Tris/Hepes (pH 7.2), 2 mM EGTA, and 1.998 mM CaCl2 ([Ca^2+]free = 10 μM). [Ca^2+]free was calculated using the “Chelator” program (Theo Schoenmaker). Cs^+ was selected as the charge carrier to ensure precise control of free [Ca^2+], to increase the channel conductance, and to avoid any contribution from potassium channels present in the SR membrane. Chloride channels were inhibited by using the impermeant anion methanesulfonate. Incorporation of ion channels was carried out as described by Miller and Racker and confirmed by recording the characteristically high single-channel conductance of RyRs. The trans side was maintained at ground and the cis side was clamped at −30 mV relative to the ground. After addition of the IpTxa to the cis chamber, the single channel data were collected at −30 mV for 2–5 min. […] Recordings were filtered with an 8-pole low-pass Bessel filter at 1 kHz and digitalized through a Digidata 1200 series interface (Axon Instruments). Data acquisition and analysis were done with the Axon Instruments software, pClamp v7.0.
Data were analyzed using the Hill equation described previously:
(1) Psubstate=(Psubstate, max )/[1+(EC50/[IpTxa])^nH] orPo=(Po, max )/[1+(EC50/[IpTxa])^nH], where (Po, max ) is the Po observed at saturating concentrations of IpTxa, EC50 is the IpTxa concentration for which 50% of Po, max is obtained and nH is the Hill coefficient. Also, Psubstate, max is the Psubstate observed at saturating concentrations of IpTxa, EC50 is the IpTxa concentration for which 50% of Psubstate, max is obtained, and nH is the Hill coefficient. The probability of full open state of the channel (Po) was defined as the ratio of the time spent in the open state to the total time exclusive of time spent in the substate. The probability to obtain substate (Psubstate) was calculated as the time spent in the substate divided by a given total recording time. The durations of the substate were obtained by manual positioning of the cursors and constructing all point histograms. Mean duration of substate was measured by total substate time divided by total substate frequencies.
Results are given as means ± SE. Significant differences were analyzed using Student's t-test. Differences were considered to be significant when P < 0.05. The fitting of the data to the graphs were carried out using the software, Origin v7.
To examine how IpTxa modifies RyR1 activity, RyR1 in HSR incorporated in planar lipid bilayers was tested in the presence or absence of synthetic wild-type IpTxa. The chamber solutions for both cis (cytosolic) and trans (luminal) sides included 300 mM cesium methanesulfonate and 10 mM Tris-Hepes (pH 7.2). 10 μM free Ca^2+ was added to the cis side to activate the incorporated RyR1. After an addition of IpTxa to the cis chamber, the single channel gating properties were recorded at a holding potential of −30 mV for over 2 min at each toxin concentration. […] To examine the effects of IpTxa on full open state, we calculated the probability to obtain the full open state (Po) as the time spent in the open state divided by the total time exclusive of the time spent in the substate. The time for recorded Po was in the range of 30 s–2 min. […] The steady-state Po was 0.18 ± 0.02 at 10 μM Ca^2+. […]

T1 sequence (P11716 whole entry): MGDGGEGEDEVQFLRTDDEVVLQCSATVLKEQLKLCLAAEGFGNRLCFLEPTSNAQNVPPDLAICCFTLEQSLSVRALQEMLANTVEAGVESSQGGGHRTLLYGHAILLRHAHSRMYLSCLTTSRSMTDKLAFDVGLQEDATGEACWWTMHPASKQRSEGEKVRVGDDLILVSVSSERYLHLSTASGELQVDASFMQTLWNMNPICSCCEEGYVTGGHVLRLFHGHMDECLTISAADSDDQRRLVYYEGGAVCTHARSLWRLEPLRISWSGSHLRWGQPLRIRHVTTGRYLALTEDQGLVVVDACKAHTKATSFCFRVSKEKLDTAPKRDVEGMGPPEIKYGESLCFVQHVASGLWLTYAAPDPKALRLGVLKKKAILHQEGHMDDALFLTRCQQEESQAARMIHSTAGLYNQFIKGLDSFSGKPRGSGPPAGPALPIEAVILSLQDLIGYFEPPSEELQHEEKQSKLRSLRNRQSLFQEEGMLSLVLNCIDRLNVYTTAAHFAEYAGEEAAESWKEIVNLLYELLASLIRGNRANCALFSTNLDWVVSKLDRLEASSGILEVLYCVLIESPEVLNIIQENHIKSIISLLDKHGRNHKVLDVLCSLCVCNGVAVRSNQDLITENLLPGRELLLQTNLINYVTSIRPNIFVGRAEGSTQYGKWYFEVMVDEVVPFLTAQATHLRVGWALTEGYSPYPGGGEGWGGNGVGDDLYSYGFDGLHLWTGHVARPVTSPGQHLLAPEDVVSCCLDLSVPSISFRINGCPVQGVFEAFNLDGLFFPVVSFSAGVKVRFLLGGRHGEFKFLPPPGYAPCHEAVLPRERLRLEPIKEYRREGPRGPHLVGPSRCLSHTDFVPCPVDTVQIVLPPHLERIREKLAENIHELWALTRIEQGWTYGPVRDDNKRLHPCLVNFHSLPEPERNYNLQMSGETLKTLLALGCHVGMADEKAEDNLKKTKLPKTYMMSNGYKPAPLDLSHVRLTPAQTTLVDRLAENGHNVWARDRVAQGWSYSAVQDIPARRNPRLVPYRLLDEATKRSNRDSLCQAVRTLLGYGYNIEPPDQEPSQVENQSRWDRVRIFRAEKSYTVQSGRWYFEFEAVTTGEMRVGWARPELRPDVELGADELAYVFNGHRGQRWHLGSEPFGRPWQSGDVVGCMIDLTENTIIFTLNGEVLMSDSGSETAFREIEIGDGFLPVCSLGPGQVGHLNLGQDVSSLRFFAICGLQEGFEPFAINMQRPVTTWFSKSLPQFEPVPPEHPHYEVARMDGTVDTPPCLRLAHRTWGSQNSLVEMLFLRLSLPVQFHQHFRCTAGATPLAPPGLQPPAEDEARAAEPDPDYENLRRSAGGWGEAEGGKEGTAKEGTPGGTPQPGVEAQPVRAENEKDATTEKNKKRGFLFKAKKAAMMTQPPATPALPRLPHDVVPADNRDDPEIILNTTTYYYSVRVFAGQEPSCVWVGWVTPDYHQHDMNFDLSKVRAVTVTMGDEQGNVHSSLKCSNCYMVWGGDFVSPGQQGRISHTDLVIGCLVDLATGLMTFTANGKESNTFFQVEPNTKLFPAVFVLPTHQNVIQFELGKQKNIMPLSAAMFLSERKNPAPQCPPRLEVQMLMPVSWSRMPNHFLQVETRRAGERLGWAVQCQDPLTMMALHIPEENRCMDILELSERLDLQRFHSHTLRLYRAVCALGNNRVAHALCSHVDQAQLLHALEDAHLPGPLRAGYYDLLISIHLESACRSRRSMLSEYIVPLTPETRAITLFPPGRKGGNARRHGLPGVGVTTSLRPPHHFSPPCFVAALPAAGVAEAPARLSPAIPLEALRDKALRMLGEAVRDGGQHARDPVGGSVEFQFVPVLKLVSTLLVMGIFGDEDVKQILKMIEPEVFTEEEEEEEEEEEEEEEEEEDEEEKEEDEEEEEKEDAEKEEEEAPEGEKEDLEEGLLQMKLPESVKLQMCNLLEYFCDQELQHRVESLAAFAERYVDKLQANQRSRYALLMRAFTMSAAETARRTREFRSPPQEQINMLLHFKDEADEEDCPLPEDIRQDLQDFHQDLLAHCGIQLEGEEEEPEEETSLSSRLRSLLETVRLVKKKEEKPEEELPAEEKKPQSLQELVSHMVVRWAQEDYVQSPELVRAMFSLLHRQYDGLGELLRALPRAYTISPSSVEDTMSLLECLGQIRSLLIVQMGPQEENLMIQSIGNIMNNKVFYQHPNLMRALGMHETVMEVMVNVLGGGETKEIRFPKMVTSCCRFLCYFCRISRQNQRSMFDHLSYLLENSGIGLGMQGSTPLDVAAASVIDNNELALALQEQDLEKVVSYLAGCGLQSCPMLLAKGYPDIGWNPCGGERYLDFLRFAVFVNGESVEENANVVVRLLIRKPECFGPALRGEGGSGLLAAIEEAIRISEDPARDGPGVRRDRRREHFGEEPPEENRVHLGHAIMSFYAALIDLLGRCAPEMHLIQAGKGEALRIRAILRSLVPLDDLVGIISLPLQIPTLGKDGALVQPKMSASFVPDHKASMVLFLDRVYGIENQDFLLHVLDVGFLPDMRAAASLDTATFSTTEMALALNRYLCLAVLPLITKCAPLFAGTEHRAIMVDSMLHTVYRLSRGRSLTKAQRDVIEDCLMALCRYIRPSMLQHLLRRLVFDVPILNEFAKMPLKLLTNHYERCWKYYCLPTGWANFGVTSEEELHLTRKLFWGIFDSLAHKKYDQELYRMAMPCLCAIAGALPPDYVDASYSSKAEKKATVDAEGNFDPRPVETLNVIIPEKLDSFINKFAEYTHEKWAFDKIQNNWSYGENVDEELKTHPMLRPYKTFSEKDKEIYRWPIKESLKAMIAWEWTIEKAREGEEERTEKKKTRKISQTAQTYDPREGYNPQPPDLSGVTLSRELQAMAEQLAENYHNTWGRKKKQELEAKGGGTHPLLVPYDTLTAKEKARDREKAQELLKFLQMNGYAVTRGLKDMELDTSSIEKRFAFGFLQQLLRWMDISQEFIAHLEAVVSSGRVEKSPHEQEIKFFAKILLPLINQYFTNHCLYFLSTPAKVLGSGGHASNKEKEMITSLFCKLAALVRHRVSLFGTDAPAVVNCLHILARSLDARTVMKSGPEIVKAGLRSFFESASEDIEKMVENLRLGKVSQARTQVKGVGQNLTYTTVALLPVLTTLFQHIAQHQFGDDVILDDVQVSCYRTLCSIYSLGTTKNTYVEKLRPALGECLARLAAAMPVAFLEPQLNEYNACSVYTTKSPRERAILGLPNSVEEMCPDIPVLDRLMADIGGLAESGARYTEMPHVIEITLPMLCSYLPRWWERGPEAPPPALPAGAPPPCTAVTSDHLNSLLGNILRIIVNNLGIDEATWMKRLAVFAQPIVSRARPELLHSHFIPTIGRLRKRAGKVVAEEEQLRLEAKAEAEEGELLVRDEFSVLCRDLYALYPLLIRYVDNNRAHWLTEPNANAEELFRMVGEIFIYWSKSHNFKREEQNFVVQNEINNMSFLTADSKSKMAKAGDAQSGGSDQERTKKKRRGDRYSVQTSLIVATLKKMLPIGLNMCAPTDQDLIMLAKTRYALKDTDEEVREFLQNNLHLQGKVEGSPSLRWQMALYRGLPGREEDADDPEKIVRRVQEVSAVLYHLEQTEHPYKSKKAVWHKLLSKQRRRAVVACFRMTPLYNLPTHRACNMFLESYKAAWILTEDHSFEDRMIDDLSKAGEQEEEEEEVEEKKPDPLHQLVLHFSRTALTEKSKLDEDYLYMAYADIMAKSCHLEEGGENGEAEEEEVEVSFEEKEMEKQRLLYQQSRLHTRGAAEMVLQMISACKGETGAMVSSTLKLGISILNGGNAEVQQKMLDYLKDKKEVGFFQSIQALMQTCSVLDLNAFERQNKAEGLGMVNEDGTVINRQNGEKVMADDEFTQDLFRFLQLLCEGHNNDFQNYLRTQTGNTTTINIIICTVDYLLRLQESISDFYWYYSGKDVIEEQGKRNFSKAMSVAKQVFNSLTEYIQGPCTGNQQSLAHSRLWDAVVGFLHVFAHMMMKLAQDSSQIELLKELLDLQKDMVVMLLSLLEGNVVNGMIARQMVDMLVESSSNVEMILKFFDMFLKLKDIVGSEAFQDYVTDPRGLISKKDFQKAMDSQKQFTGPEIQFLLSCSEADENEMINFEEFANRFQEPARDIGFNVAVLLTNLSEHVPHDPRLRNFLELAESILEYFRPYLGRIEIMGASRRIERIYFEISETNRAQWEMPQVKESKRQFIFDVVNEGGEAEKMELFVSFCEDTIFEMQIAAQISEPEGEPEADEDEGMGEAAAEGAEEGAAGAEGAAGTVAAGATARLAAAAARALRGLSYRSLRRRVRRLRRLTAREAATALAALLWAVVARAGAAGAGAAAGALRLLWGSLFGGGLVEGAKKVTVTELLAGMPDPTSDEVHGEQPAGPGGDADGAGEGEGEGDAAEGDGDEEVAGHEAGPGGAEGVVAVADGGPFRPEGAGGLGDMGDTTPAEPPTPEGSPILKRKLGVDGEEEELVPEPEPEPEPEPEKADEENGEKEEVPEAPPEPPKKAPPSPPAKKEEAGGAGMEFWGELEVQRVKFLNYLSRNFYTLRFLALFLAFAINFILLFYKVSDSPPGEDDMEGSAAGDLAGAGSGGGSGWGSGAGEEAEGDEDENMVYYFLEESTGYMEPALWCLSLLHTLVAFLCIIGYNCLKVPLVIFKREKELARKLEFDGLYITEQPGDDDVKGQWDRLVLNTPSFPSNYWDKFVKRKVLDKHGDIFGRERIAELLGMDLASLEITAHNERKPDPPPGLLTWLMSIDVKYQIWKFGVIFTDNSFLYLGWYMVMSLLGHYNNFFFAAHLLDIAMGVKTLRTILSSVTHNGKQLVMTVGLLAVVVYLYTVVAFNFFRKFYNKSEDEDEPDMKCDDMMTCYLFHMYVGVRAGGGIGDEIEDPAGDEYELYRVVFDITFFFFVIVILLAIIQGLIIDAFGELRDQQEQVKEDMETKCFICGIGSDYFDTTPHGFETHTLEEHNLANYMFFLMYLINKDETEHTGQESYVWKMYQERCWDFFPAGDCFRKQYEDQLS

SMILES | EC50 of Psubstate compared with wild type (in words)
CC(C)C[C@@H]1NC(=O)[C@H](Cc2c[nH]cn2)NC(=O)[C@@H]2CCCN2C(=O)[C@H](CC(C)C)NC(=O)[C@@H](NC(=O)[C@H](CC(=O)O)NC(=O)CN)CSSC[C@@H]2NC(=O)[C@@H]3CSSC[C@@H](C(=O)N[C@@H](CCCNC(=N)N)C(=O)O)NC(=O)[C@H](CCCNC(=N)N)NC(=O)[C@H](CCCCN)NC(=O)[C@H](CCC(=O)O)NC(=O)[C@H](C)NC(=O)[C@H](CC(N)=O)NC(=O)[C@H](C)NC(=O)CNC(=O)[C@H](CCCNC(=N)N)NC(=O)[C@H](CCCNC(=N)N)NC(=O)[C@H](CCCCN)NC(=O)[C@H](CSSC[C@H](NC(=O)[C@H](CCCNC(=N)N)NC(=O)[C@H](CCCCN)NC1=O)C(=O)N[C@@H](CCCCN)C(=O)N[C@@H](C)C(=O)N[C@@H](CC(=O)O)C(=O)N[C@@H](CC(N)=O)C(=O)N[C@@H](CC(=O)O)C(=O)N3)NC(=O)[C@H](CCCCN)NC(=O)[C@H](CCCCN)NC(=O)CNC2=O [T26A] (H-GDCLPHLKRCKADNDCCGKKCKRRGANAEKRCR-OH; disulfide 3-17, 10-21, 16-32) | dramatically decreased EC50 of Psubstate

Same assay, conditions: native RyR1 in SR, toxin cis, 6-100 nM, -30 mV, [Ca^2+]free 10 μM, pH 7.2, Hill fit, means ± SE of 3–9 experiments; read-out: EC50 for Psubstate

SMILES | EC50 [nM]
CC(C)C[C@@H]1NC(=O)[C@H](Cc2c[nH]cn2)NC(=O)[C@@H]2CCCN2C(=O)[C@H](CC(C)C)NC(=O)[C@@H](NC(=O)[C@H](CC(=O)O)NC(=O)CN)CSSC[C@@H]2NC(=O)[C@@H]3CSSC[C@@H](C(=O)N[C@@H](CCCNC(=N)N)C(=O)O)NC(=O)[C@H](CCCNC(=N)N)NC(=O)[C@H](CCCCN)NC(=O)[C@H](CCC(=O)O)NC(=O)[C@H](C)NC(=O)[C@H](CC(N)=O)NC(=O)[C@H]([C@@H](C)O)NC(=O)CNC(=O)[C@H](CCCNC(=N)N)NC(=O)[C@H](CCCNC(=N)N)NC(=O)[C@H](CCCCN)NC(=O)[C@H](CSSC[C@H](NC(=O)[C@H](CCCNC(=N)N)NC(=O)[C@H](CCCCN)NC1=O)C(=O)N[C@@H](CCCCN)C(=O)N[C@@H](C)C(=O)N[C@@H](CC(=O)O)C(=O)N[C@@H](CC(N)=O)C(=O)N[C@@H](C)C(=O)N3)NC(=O)[C@H](CCCCN)NC(=O)[C@H](CCCCN)NC(=O)CNC2=O [D15A] (H-GDCLPHLKRCKADNACCGKKCKRRGTNAEKRCR-OH; disulfide 3-17, 10-21, 16-32) | 21.5 ± 1.92
CC(C)C[C@@H]1NC(=O)[C@H](Cc2c[nH]cn2)NC(=O)[C@@H]2CCCN2C(=O)[C@H](CC(C)C)NC(=O)[C@@H](NC(=O)[C@H](CC(=O)O)NC(=O)CN)CSSC[C@@H]2NC(=O)[C@@H]3CSSC[C@@H](C(=O)N[C@@H](CCCNC(=N)N)C(=O)O)NC(=O)[C@H](CCCNC(=N)N)NC(=O)[C@H](CCCCN)NC(=O)[C@H](CCC(=O)O)NC(=O)[C@H](C)NC(=O)[C@H](CC(N)=O)NC(=O)[C@H]([C@@H](C)O)NC(=O)CNC(=O)[C@H](CCCNC(=N)N)NC(=O)[C@H](C)NC(=O)[C@H](CCCCN)NC(=O)[C@H](CSSC[C@H](NC(=O)[C@H](CCCNC(=N)N)NC(=O)[C@H](CCCCN)NC1=O)C(=O)N[C@@H](CCCCN)C(=O)N[C@@H](C)C(=O)N[C@@H](CC(=O)O)C(=O)N[C@@H](CC(N)=O)C(=O)N[C@@H](CC(=O)O)C(=O)N3)NC(=O)[C@H](CCCCN)NC(=O)[C@H](CCCCN)NC(=O)CNC2=O [R23A] (H-GDCLPHLKRCKADNDCCGKKCKARGTNAEKRCR-OH; disulfide 3-17, 10-21, 16-32) | 19.5 ± 9.36
CC(C)C[C@@H]1NC(=O)[C@H](Cc2c[nH]cn2)NC(=O)[C@@H]2CCCN2C(=O)[C@H](CC(C)C)NC(=O)[C@@H](NC(=O)[C@H](CC(=O)O)NC(=O)CN)CSSC[C@@H]2NC(=O)[C@@H]3CSSC[C@@H](C(=O)N[C@@H](CCCNC(=N)N)C(=O)O)NC(=O)[C@H](CCCNC(=N)N)NC(=O)[C@H](CCCCN)NC(=O)[C@H](C)NC(=O)[C@H](C)NC(=O)[C@H](CC(N)=O)NC(=O)[C@H]([C@@H](C)O)NC(=O)CNC(=O)[C@H](CCCNC(=N)N)NC(=O)[C@H](CCCNC(=N)N)NC(=O)[C@H](CCCCN)NC(=O)[C@H](CSSC[C@H](NC(=O)[C@H](CCCNC(=N)N)NC(=O)[C@H](CCCCN)NC1=O)C(=O)N[C@@H](CCCCN)C(=O)N[C@@H](C)C(=O)N[C@@H](CC(=O)O)C(=O)N[C@@H](CC(N)=O)C(=O)N[C@@H](CC(=O)O)C(=O)N3)NC(=O)[C@H](CCCCN)NC(=O)[C@H](CCCCN)NC(=O)CNC2=O [E29A] (H-GDCLPHLKRCKADNDCCGKKCKRRGTNAAKRCR-OH; disulfide 3-17, 10-21, 16-32) | 6.07 ± 4.28
CC(C)C[C@@H]1NC(=O)[C@H](Cc2c[nH]cn2)NC(=O)[C@@H]2CCCN2C(=O)[C@H](CC(C)C)NC(=O)[C@@H](NC(=O)[C@H](CC(=O)O)NC(=O)CN)CSSC[C@@H]2NC(=O)[C@@H]3CSSC[C@@H](C(=O)N[C@@H](CCCNC(=N)N)C(=O)O)NC(=O)[C@H](CCCNC(=N)N)NC(=O)[C@H](CCCCN)NC(=O)[C@H](CCC(=O)O)NC(=O)[C@H](C)NC(=O)[C@H](CC(N)=O)NC(=O)[C@H]([C@@H](C)O)NC(=O)CNC(=O)[C@H](CCCNC(=N)N)NC(=O)[C@H](CCCNC(=N)N)NC(=O)[C@H](CCCCN)NC(=O)[C@H](CSSC[C@H](NC(=O)[C@H](CCCNC(=N)N)NC(=O)[C@H](CCCCN)NC1=O)C(=O)N[C@@H](CCCCN)C(=O)N[C@@H](C)C(=O)N[C@@H](C)C(=O)N[C@@H](CC(N)=O)C(=O)N[C@@H](CC(=O)O)C(=O)N3)NC(=O)[C@H](CCCCN)NC(=O)[C@H](CCCCN)NC(=O)CNC2=O [D13A] (H-GDCLPHLKRCKAANDCCGKKCKRRGTNAEKRCR-OH; disulfide 3-17, 10-21, 16-32) | 21.7 ± 7.92
CC(C)C[C@@H]1NC(=O)[C@H](Cc2c[nH]cn2)NC(=O)[C@@H]2CCCN2C(=O)[C@H](CC(C)C)NC(=O)[C@@H](NC(=O)[C@H](CC(=O)O)NC(=O)CN)CSSC[C@@H]2NC(=O)[C@@H]3CSSC[C@@H](C(=O)N[C@@H](CCCNC(=N)N)C(=O)O)NC(=O)[C@H](CCCNC(=N)N)NC(=O)[C@H](CCCCN)NC(=O)[C@H](CCC(=O)O)NC(=O)[C@H](C)NC(=O)[C@H](CC(N)=O)NC(=O)[C@H]([C@@H](C)O)NC(=O)CNC(=O)[C@H](CCCNC(=N)N)NC(=O)[C@H](CCCNC(=N)N)NC(=O)[C@H](CCCCN)NC(=O)[C@H](CSSC[C@H](NC(=O)[C@H](CCCNC(=N)N)NC(=O)[C@H](CCCCN)NC1=O)C(=O)N[C@@H](C)C(=O)N[C@@H](C)C(=O)N[C@@H](CC(=O)O)C(=O)N[C@@H](CC(N)=O)C(=O)N[C@@H](CC(=O)O)C(=O)N3)NC(=O)[C@H](CCCCN)NC(=O)[C@H](CCCCN)NC(=O)CNC2=O [K11A] (H-GDCLPHLKRCAADNDCCGKKCKRRGTNAEKRCR-OH; disulfide 3-17, 10-21, 16-32) | 21.8 ± 3.49
CC(C)C[C@@H]1NC(=O)[C@H](Cc2c[nH]cn2)NC(=O)[C@@H]2CCCN2C(=O)[C@H](CC(C)C)NC(=O)[C@@H](NC(=O)[C@H](CC(=O)O)NC(=O)CN)CSSC[C@@H]2NC(=O)[C@@H]3CSSC[C@@H](C(=O)N[C@@H](CCCNC(=N)N)C(=O)O)NC(=O)[C@H](CCCNC(=N)N)NC(=O)[C@H](CCCCN)NC(=O)[C@H](CCC(=O)O)NC(=O)[C@H](C)NC(=O)[C@H](CC(N)=O)NC(=O)[C@H]([C@@H](C)O)NC(=O)CNC(=O)[C@H](CCCNC(=N)N)NC(=O)[C@H](CCCNC(=N)N)NC(=O)[C@H](CCCCN)NC(=O)[C@H](CSSC[C@H](NC(=O)[C@H](CCCNC(=N)N)NC(=O)[C@H](CCCCN)NC1=O)C(=O)N[C@@H](CCCCN)C(=O)N[C@@H](C)C(=O)N[C@@H](CC(=O)O)C(=O)N[C@@H](CC(N)=O)C(=O)N[C@@H](CC(=O)O)C(=O)N3)NC(=O)[C@H](C)NC(=O)[C@H](CCCCN)NC(=O)CNC2=O [K20A] (H-GDCLPHLKRCKADNDCCGKACKRRGTNAEKRCR-OH; disulfide 3-17, 10-21, 16-32) | 18.5 ± 8.17
CC(C)C[C@@H]1NC(=O)[C@H](Cc2c[nH]cn2)NC(=O)[C@@H]2CCCN2C(=O)[C@H](CC(C)C)NC(=O)[C@@H](NC(=O)[C@H](CC(=O)O)NC(=O)CN)CSSC[C@@H]2NC(=O)[C@@H]3CSSC[C@@H](C(=O)N[C@@H](CCCNC(=N)N)C(=O)O)NC(=O)[C@H](CCCNC(=N)N)NC(=O)[C@H](CCCCN)NC(=O)[C@H](CCC(=O)O)NC(=O)[C@H](C)NC(=O)[C@H](CC(N)=O)NC(=O)[C@H](C)NC(=O)CNC(=O)[C@H](CCCNC(=N)N)NC(=O)[C@H](CCCNC(=N)N)NC(=O)[C@H](CCCCN)NC(=O)[C@H](CSSC[C@H](NC(=O)[C@H](CCCNC(=N)N)NC(=O)[C@H](CCCCN)NC1=O)C(=O)N[C@@H](CCCCN)C(=O)N[C@@H](C)C(=O)N[C@@H](CC(=O)O)C(=O)N[C@@H](CC(N)=O)C(=O)N[C@@H](CC(=O)O)C(=O)N3)NC(=O)[C@H](CCCCN)NC(=O)[C@H](CCCCN)NC(=O)CNC2=O [T26A] (H-GDCLPHLKRCKADNDCCGKKCKRRGANAEKRCR-OH; disulfide 3-17, 10-21, 16-32) | 9.98 ± 1.92
